Data published in ChEMBL document CHEMBL1141989, “Amino acid conjugates as kappa opioid receptor agonists” (Bioorg Med Chem Lett, 2005).
Values joined by “and” are separate entries in the source; they are usually repeats but may differ in a detail not shown here. Equal values may be shown once.

Columns and labels:
[1] = target: Opioid receptors; mu & kappa (Homo sapiens) (UniProt P41145+P35372); assay: Selectivity of binding affinity of human kappa opioid receptor over human mu opioid receptor; type: protein assay
Opioid receptors; mu & kappa (Homo sapiens), sequence (P35372 whole entry, looked up): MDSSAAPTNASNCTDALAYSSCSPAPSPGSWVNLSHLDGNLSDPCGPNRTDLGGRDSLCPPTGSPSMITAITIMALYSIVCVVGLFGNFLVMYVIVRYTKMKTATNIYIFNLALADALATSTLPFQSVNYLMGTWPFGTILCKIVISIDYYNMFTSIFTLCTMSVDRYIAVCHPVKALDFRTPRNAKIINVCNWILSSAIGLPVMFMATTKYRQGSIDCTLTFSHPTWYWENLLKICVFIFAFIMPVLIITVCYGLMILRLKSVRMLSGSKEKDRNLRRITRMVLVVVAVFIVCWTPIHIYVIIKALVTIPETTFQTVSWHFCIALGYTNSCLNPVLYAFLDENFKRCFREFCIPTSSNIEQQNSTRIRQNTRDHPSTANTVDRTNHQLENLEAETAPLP
Opioid receptors; mu & kappa (Homo sapiens), sequence (P41145 whole entry, looked up): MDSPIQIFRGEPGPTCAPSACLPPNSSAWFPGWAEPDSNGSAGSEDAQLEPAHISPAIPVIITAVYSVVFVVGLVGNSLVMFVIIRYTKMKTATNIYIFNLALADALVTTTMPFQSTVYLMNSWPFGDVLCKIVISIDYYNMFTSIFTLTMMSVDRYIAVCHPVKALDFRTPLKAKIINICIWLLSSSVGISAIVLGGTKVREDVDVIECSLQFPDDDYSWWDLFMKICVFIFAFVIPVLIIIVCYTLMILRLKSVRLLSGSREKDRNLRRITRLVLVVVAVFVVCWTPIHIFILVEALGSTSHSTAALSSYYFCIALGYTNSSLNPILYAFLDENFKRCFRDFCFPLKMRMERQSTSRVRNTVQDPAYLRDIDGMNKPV

[2] = target: T1, Kappa-type opioid receptor (Homo sapiens, UniProt P41145); assay: In vitro binding affinity for human kappa opioid receptor was determined by using [3H]diprenorphine as radioligand
T1 sequence (P41145 whole entry): as the sequence (P41145 whole entry, looked up) above

[3] = target: T1, Kappa-type opioid receptor; assay: In vitro effective concentration towards human kappa opioid receptor was determined using [35S]-GTP-gamma S as radioligand; Not determined; type: functional

Structure (SMILES): CN(C(=O)[C@H](Cc1ccccc1)NC(=O)OCc1ccccc1)[C@H](CN1CCCC1)c1ccccc1
- Selectivity [1]: 13 and 5
- Ki [2]: 150 nM

Structure (SMILES): CN(C(=O)CNC(=O)c1ccc(Cl)c(Cl)c1)[C@H](CN1CC[C@@H](O)C1)c1ccccc1
- EC50 [3]: 0.76 nM
- Ki [2]: 0.83 nM

Structure (SMILES): CN(C(=O)CNC(=O)c1ccc(Cl)c(Cl)c1)[C@H](CN1CCCC1)c1ccccc1
- Selectivity [1]: 34 and 24
- EC50 [3]: 2.25 nM
- Ki [2]: 3.6 nM

Structure (SMILES): CN(C(=O)[C@@H](NC(=O)c1ccccc1)c1ccccc1)[C@H](CN1CCCC1)c1ccccc1
- Ki [2]: 99 nM

Structure (SMILES): CN(C(=O)CNC(=O)c1ccc2c(c1)no[n+]2[O-])[C@H](CN1CCCC1)c1ccccc1
- EC50 [3]: 4.37 nM
- Ki [2]: 4.6 nM

Structure (SMILES): CN(C(=O)CNC(=O)Cc1ccccc1)[C@H](CN1CCCC1)c1ccccc1
- Selectivity [1]: > 100 and 49
- Ki [2]: 16.3 nM

Structure (SMILES): CN(C(=O)CNC(=O)OCc1ccccc1)[C@H](CN1CCCC1)c1ccccc1
- Ki [2]: 84 nM

Structure (SMILES): CN(CC(=O)N(C)[C@H](CN1CC[C@@H](O)C1)c1ccccc1)C(=O)c1ccc(Cl)c(Cl)c1
- EC50 [3]: 41.4 nM
- Ki [2]: 20 nM

Structure (SMILES): CN(C(=O)C(NC=O)c1ccccc1)[C@H](CN1CCCC1)c1ccccc1 (mixture of isomers)
- Selectivity [1]: 146 and > 100
- Ki [2]: 258 nM

Structure (SMILES): CN(C(=O)[C@H](NC(=O)OCc1ccccc1)c1ccccc1)[C@H](CN1CCCC1)c1ccccc1
- Ki [2]: 856 nM

Structure (SMILES): COC(=O)N[C@H](C(=O)N(C)[C@H](CN1CCCC1)c1ccccc1)c1ccccc1
- Selectivity [1]: > 100
- Ki [2]: 178 nM

Structure (SMILES): COc1ccc(C(=O)NCC(=O)N(C)[C@H](CN2CC[C@@H](O)C2)c2ccccc2)cc1
- Selectivity [1]: 39 and > 100
- Ki [2]: 48 nM

Structure (SMILES): CN(C(=O)[C@@H](NC(=O)OCc1ccccc1)c1ccccc1)[C@H](CN1CCCC1)c1ccccc1
- Selectivity [1]: 22 and 27
- Ki [2]: 138 nM

Structure (SMILES): CN(C(=O)CNC(=O)c1ccccc1)[C@H](CN1CCCC1)c1ccccc1
- Selectivity [1]: 61 and 50
- EC50 [3]: 3.85 nM
- Ki [2]: 6.7 nM

Structure (SMILES): COc1ccccc1C(=O)NCC(=O)N(C)[C@H](CN1CC[C@@H](O)C1)c1ccccc1
- EC50 [3]: 1.98 nM
- Ki [2]: 2 nM
